Target: T1, CT (mitochondrial citrate transporter) (Mucor circinelloides, UniProt S2JNX7)
T1 construct: gene HMPREF1544_02933; complete ct gene, codon-optimised, pET30a(+) NdeI-ATG-ct-Histag-stop-HindIII (C-terminal His tag kept); E. coli BL21(DE3) inclusion bodies, urea-solubilised, Ni column, renatured, reconstituted in liposomes; about 32 kDa; three Mtc domains 10-104, 106-199, 209-296
T1 sequence (S2JNX7 1-301): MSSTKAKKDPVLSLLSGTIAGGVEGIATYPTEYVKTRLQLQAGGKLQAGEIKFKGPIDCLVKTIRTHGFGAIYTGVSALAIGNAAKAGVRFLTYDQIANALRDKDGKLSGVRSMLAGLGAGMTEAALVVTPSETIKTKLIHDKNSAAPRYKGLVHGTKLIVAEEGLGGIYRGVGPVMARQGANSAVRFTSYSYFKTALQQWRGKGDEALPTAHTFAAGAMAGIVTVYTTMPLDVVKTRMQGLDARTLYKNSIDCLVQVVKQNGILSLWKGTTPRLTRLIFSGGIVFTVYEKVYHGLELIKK
Assay: inhibition of […]citrate/citrate exchange in CT-reconstituted liposomes
Format: biochemical
Settings: 20 mM inhibitor; 0.01 mM [14C]citrate outside, 10 mM citrate inside; 2 min

SMILES: Cc1ncc(COP(=O)(O)O)c(C=O)c1O [pyridoxal-5'-phosphate]
- inhibition at 20 mM: This activity was inhibited strongly by PLP
